In US7265152B2 (ViroPharma Incorporated, priority 2002, dated 2007):
Where two headings read alike, the source gives them in different places.

Assays:
[1] = biological target: T1, HCV NS5B (Hepatitis C virus genotype 1b, UniProt Q9WMX2); test: Inhibition of viral RNA-dependent RNA polymerase (RdRp), in vitro biochemical assay; parameters: species or system HCV genotype 1b virus (BB7); conditions: HCV NS5B RdRp, BB7 genotype 1b; read-out: HCV pol-BB7 IC50
T1 construct: fusion protein, of which the carboxyl terminal 21 amino acids were removed to enhance its solubility; His tag (GSHHHHHH); made in house; host or cells: E. coli
Summary of the method: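 IC50 values are the concentrations that halve in vitro RNA synthesis by HCV NS5B polymerase. The enzyme was a C-terminally truncated (Δ21), His-tagged genotype 1b (BB7 consensus) protein purified from E. coli.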

[2] = test system: HCV replicon (BB7 sequence) in Huh-7-Clone A cells; test: HCV replicon assay: ELISA of NS5A protein in replicon-containing cells (Inhibition of Viral RNA Replication); type: cell-based; conditions: ranges of EC50 in HCV replicon assay, read-out: Replicon
Summary of the method: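 EC50 taken from an 8-point serially diluted dose curve, with NS5A level as read-out: fixed cells probed with primary monoclonal and HRP-conjugated secondary, TMB developed 30 min, OD 650 nm. Compound exposure 72 h in Huh-7-Clone A replicon cells (BB7 sequence).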

Structure (SMILES)	IC50 [1] [nM]	EC50 ([2]; Hepatitis C virus) [nM]	EC50 [2] [nM]
CNC(=O)c1c(-c2ccncc2)oc2ccc(OC)cc12 [Example 107, 5-Methoxy-2-pyridin-4-yl-benzofuran-3-carboxylic acid methylamide]	500 to 5000	< 100000	
CNC(=O)c1c(-c2ccc(F)cc2)oc2cc(N3CCC(S(C)(=O)=O)C3)c(OC(C)C)cc12 (stereo not drawn) [Example 108, 2-(4-Fluoro-phenyl)-5-isopropoxy-6-(3-methanesulfonyl-pyrrolidin-1-yl)-benzofuran-3-carboxylic acid methylamide]	≤ 500	< 1000	
CNC(=O)c1c(-c2ccc(F)cc2)oc2cc(N3CCC3)c(OC(C)C)cc12 [Example 109]	≤ 500		< 1000
CNC(=O)c1c(-c2ccc(F)cc2)oc2cc(N3CCC(O)C3)c(OC(C)C)cc12 (stereo not drawn) [Example 110]	≤ 500	< 1000	
CNC(=O)c1c(-c2ccc(F)cc2)oc2cc(N(C)S(C)(=O)=O)c(OC(C)C)cc12 [Example 111, 2-(4-Fluoro-phenyl)-5-isopropoxy-6-(methanesulfonyl-methyl-amino)-benzofuran-3-carboxylic acid methylamide]	≤ 500	< 1000	
CNC(=O)c1c(-c2ccc(F)cc2)oc2cc(NCc3ccoc3)c(OC(C)C)cc12 [Example 112, 2-(4-Fluoro-phenyl)-6-[(furan-3-ylmethyl)-amino]-5-isopropoxy-benzofuran-3-carboxylic acid methylamide]	≤ 500	< 1000	
CNC(=O)c1c(-c2ccc(F)cc2)oc2cc(NCC(O)CO)c(OC(C)C)cc12 (stereo not drawn) [Example 113, 6-(2,3-Dihydroxy-propylamino)-2-(4-fluoro-phenyl)-5-isopropoxy-benzofuran-3-carboxylic acid methylamide]	500 to 5000	< 10000	
CNC(=O)c1c(-c2ccc(F)cc2)oc2cc(NC(C)C)c(OC(C)C)cc12 [Example 114, 2-(4-Fluoro-phenyl)-5-isopropoxy-6-isopropylamino-benzofuran-3-carboxylic acid methylamide]	≤ 500	< 1000	
CNC(=O)c1c(-c2ccc(F)cc2)oc2cc(NCC3CC3)c(OC(C)C)cc12 [Example 115, 6-(Cyclopropylmethyl-amino)-2-(4-fluoro-phenyl)-5-isopropoxy-benzofuran-3-carboxylic acid methylamide]	≤ 500	< 1000	
CNC(=O)c1c(-c2ccc(F)cc2)oc2cc(N3CCCC3)c(OC)cc12 [Example 116, 2-(4-Fluoro-phenyl)-5-methoxy-6-pyrrolidin-1-yl-benzofuran-3-carboxylic acid methylamide]	≤ 500	< 1000	
CNC(=O)c1c(-c2ccc(F)cc2)oc2cc(N3CCOCC3)c(OCc3ccccc3)cc12 [Example 117, 5-Benzyloxy-2-(4-fluoro-phenyl)-6-morpholin-4-yl-benzofuran-3-carboxylic acid methylamide]	≤ 500	< 1000	
CNC(=O)c1c(-c2ccccc2)oc2ccc(CO)cc12 [Example 118, 5-Hydroxymethyl-2-phenyl-benzofuran-3-carboxylic acid methylamide]	5000 to 30000	> 100000	
CNC(=O)c1c(-c2ccc(F)cc2)oc2cc(N(C)CCOC)c(OC(C)C)cc12 [Example 119, 2-(4-Fluoro-phenyl)-5-isopropoxy-6-[(2-methoxy-ethyl)-methyl-amino]-benzofuran-3-carboxylic acid methylamide]	≤ 500	< 1000	
CNC(=O)c1c(-c2ccc(F)cc2)oc2cc(N)c(OCc3ccccc3)cc12 [Example 120, 6-Amino-5-benzyloxy-2-(4-fluoro-phenyl)-benzofuran-3-carboxylic acid methylamide]	≤ 500	< 10000	
CNC(=O)c1c(-c2occc2C)oc2ccc(OC(C)C)cc12 [Example 121, 5-Isopropoxy-2-(3-methyl-furan-2-yl)-benzofuran-3-carboxylic acid methylamide]	500 to 5000	< 30000	
CNC(=O)c1c(-c2ccc(F)cc2)oc2cc(NS(C)(=O)=O)c(OC)cc12 [Example 122, 2-(4-Fluoro-phenyl)-6-methanesulfonylamino-5-methoxy-benzofuran-3-carboxylic acid methylamide]	≤ 500	< 1000	
CNC(=O)c1c(-c2ccc(F)cc2)oc2cc(NCC3CCCO3)c(OC(C)C)cc12 (stereo not drawn) [Example 123, 2-(4-Fluoro-phenyl)-5-isopropoxy-6-[(tetrahydro-furan-2-ylmethyl)-amino]-benzofuran-3-carboxylic acid methylamide]	≤ 500	< 10000	

Structure (SMILES)	IC50 [1] [nM]	EC50 ([2]; Hepatitis C virus) [nM]	EC50 [2] [nM]
CNC(=O)c1c(-c2ccc(F)cc2)oc2cc(N3CCOCC3)c(OCC3CC3)cc12 [Example 125, 5-Cyclopropylmethoxy-2-(4-fluoro-phenyl)-6-morpholin-4-yl-benzofuran-3-carboxylic acid methylamide]	≤ 500	< 1000	
CNC(=O)c1c(-c2ccc(F)cc2)oc2cc(Cl)c(OC)cc12 [Example 126, 6-Chloro-2-(4-fluoro-phenyl)-5-methoxy-benzofuran-3-carboxylic acid methylamide]	≤ 500	< 1000	
CCNC(=O)c1c(-c2ccccc2)oc2ccc(OC)cc12 [Example 130, 5-Methoxy-2-phenyl-benzofuran-3-carboxylic acid ethylamide]	5000 to 30000	< 10000	
CNC(=O)c1c(-c2ccc(F)cc2)oc2cc(Nc3ccncc3)c(OC(C)C)cc12 [Example 131, 2-(4-Fluoro-phenyl)-5-isopropoxy-6-(pyridin-4-ylamino)-benzofuran-3-carboxylic acid methylamide]	500 to 5000	< 30000	
CNC(=O)c1c(-c2ccc(F)cc2)oc2cc(N3CCN(C)CC3)c(OC(C)C)cc12 [Example 132, 2-(4-Fluoro-phenyl)-5-isopropoxy-6-(4-methyl-piperazin-1-yl)-benzofuran-3-carboxylic acid methylamide]	5000 to 30000	> 30000	
CNC(=O)c1c(-c2ccc(F)cc2)oc2cc(NS(=O)(=O)CCCCl)c(OC(C)C)cc12 [Example 133, 6-(3-Chloro-propane-1-sulfonylamino)-2-(4-fluoro-phenyl)-5-isopropoxy-benzofuran-3-carboxylic acid methylamide]	500 to 5000	< 1000	
CNC(=O)c1c(-c2ccc(F)cc2)oc2cc(N3CCCS3(=O)=O)c(OC(C)C)cc12 [Example 134, 6-(1,1-Dioxido-isothiazolidin-2-yl)-2-(4-fluoro-phenyl)-5-isopropoxy-benzofuran-3-carboxylic acid methylamide]	500 to 5000	< 10000	
CNC(=O)c1c(-c2ccc(F)cc2)oc2cc(N(C(C)C)S(C)(=O)=O)c(OC(C)C)cc12 [Example 136, 2-(4-Fluoro-phenyl)-5-isopropoxy-6-(isopropyl-methanesulfonyl-amino)-benzofuran-3-carboxylic acid methylamide]	≤ 500	< 1000	
CNC(=O)c1c(-c2ccc(F)cc2)oc2cc(N(CC3CC3)S(C)(=O)=O)c(OC(C)C)cc12 [Example 137, 6-(Cyclopropylmethyl-methanesulfonyl-amino)-2-(4-fluoro-phenyl)-5-isopropoxy-benzofuran-3-carboxylic acid methylamide]	≤ 500	< 1000	
CNC(=O)c1c(-c2ccc(F)cc2)oc2cc(N3CC(C)OC(C)C3)c(OC(C)C)cc12 (stereo not drawn) [Example 138, 6-(2,6-Dimethyl-morpholin-4-yl)-2-(4-fluoro-phenyl)-5-isopropoxy-benzofuran-3-carboxylic acid methylamide]	500 to 5000	< 10000	
CNC(=O)c1c(-c2ccc(F)cc2)oc2cc(-c3nnn[nH]3)c(OC(C)C)cc12 [Example 139, 2-(4-Fluoro-phenyl)-5-isopropoxy-6-(1H-tetrazol-5-yl)-benzofuran-3-carboxylic acid methylamide]	500 to 5000	> 30000	
CNC(=O)c1c(-c2ccc(F)cc2)oc2cc(N3CCC(O)CC3)c(OC(C)C)cc12 [Example 140, 2-(4-Fluoro-phenyl)-6-(4-hydroxy-piperidin-1-yl)-5-isopropoxy-benzofuran-3-carboxylic acid methylamide]	500 to 5000	< 10000	
CNC(=O)c1c(-c2ccc(F)cc2)oc2cc(N3CCCC(O)C3)c(OC(C)C)cc12 (stereo not drawn) [Example 141, 2-(4-Fluoro-phenyl)-6-(3-hydroxy-piperidin-1-yl)-5-isopropoxy-benzofuran-3-carboxylic acid methylamide]	500 to 5000	< 10000	
CNC(=O)c1c(-c2ccc(F)cc2)oc2cc(S(=O)(=O)N3CCOCC3)c(OC(C)C)cc12 [Example 142, 2-(4-Fluoro-phenyl)-5-isopropoxy-6-(morpholine-4-sulfonyl)-benzofuran-3-carboxylic acid methylamide]	≤ 500	< 10000	
CNC(=O)c1c(-c2ccc(F)cc2)oc2cc(S(=O)(=O)NC)c(OC(C)C)cc12 [Example 143, 2-(4-Fluoro-phenyl)-5-isopropoxy-6-methylsulfamoyl-benzofuran-3-carboxylic acid methylamide]	≤ 500	> 30000	
CNC(=O)c1c(-c2ccc(F)cc2)oc2cc(S(=O)(=O)N(C)C)c(OC(C)C)cc12 [Example 144, 6-Dimethylsulfamoyl-2-(4-fluoro-phenyl)-5-isopropoxy-benzofuran-3-carboxylic acid methylamide]	≤ 500	< 30000	
